Measured values published in article PMC11992225, “Antibacterial compounds against non-growing and intracellular bacteria” (npj Antimicrobials and Resistance, 2025).
In brackets after ≈: the same amount, converted by molar mass. Like-named read-outs stand apart in the source and are kept apart here.

Experiments:
[1] = test system: E. coli CFT073 (UPEC); experiment: MIC, standard microdilution assay, growing UPEC; format: cell-based, Escherichia coli; conditions: Escherichia coli
Procedure, shortened: (§1)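 MICs come from microdilution in CA-MHB/40 mM HEPES pH 7.4 for the UPEC, Pseudomonas and Staphylococcus strains, and in TSB for Shigella. UPEC also tested in LPM/30 mM MES pH 5.5.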

[2] = test system: S. aureus DSM2569; experiment: MIC, standard microdilution assay, growing S. aureus; format: cell-based, Staphylococcus aureus; conditions: Staphylococcus aureus
Procedure, shortened: as §1

[3] = test system: intracellular S. flexneri 5a M90T in TC7 cells; experiment: microbe, parasite or virus in culture; format: cell-based, Shigella flexneri; conditions: for IC50: Shigella flexneri, TC7, 14 h
[4] = test system: S. flexneri 5a M90T; experiment: MIC in tryptic soy broth, S. flexneri; format: cell-based, Shigella flexneri; conditions: Shigella flexneri, 5AM90T, read-out: MIC (μM) TSB
Procedure, shortened: as §1

[5] = test system: non-growing P. aeruginosa DSM1117; experiment: Dilution-regrowth assay (OD600, start-growth-time) on stationary-phase P. aeruginosa; format: cell-based, Pseudomonas aeruginosa; conditions: for EC50: Pseudomonas aeruginosa; for Regrowth, OD600 at 6h or 8h after dilution into drug-free medium: average
Protocol: To determine the spectrum of activity of the compounds that were effective against non-growing UPEC, we further assessed their efficacy against the well-characterized Gram-negative and Gram-positive reference strains P. aeruginosa DSM1117 and S. aureus DSM2569, respectively. The cultures were grown and treated for 24 h in 1:4 CA-MHB (pH 7.4). […].
For better characterization of the compounds causing the strongest regrowth delay, we performed the regrowth step of the dilution-regrowth experiments on a plate reader, measuring the OD600 at 20-min intervals for over 20 h instead of using an endpoint measurement. This approach allowed us to capture the time when cultures reached a threshold optical density (start-growth-time, SGT[15]).
Overnight cultures of UPEC, P. aeruginosa and S. aureus were grown in test tubes containing 3 ml of LB broth (~16 h), then diluted 1:100 into either 1:4 diluted CA-MHB medium buffered with 40 mM HEPES (pH 7.4) or, in case of UPEC, into LPM medium[25] supplemented with 49 µM MgCl2 and buffered with 30 mM MES (pH 5.5). The cultures were incubated for 24 h in non-baffled Erlenmeyer flasks at 37 °C with shaking at 200 rpm.
For P. aeruginosa and S. aureus, dose–response analysis was conducted in 96-well plates with a 200 μl assay volume, following the procedure used for screening assay validation experiments. Aliquots of the 39 compounds active against non-growing UPEC were obtained from SelleckChem and MedChem Express. Stock solutions were prepared and stored according to the manufacturers’ instructions, then diluted in 10% DMSO before use. Cultures were incubated for 24 h in 1:4 diluted CA-MHB medium under the same conditions used for UPEC cultivation. In preliminary experiments, each compound was tested at a concentration of 20 μM in the dilution-regrowth assay with 4 technical replicates. Regrowth was monitored using a microplate reader at 37 °C with continuous shaking, and OD600 was recorded every 20 min. The time at which OD600 exceeded the threshold of 0.12 was recorded as the Start_Growth-Time.
The statistical analysis of all data, as well as EC50 and IC50 determination, was conducted using GraphPad Prism 10.2.3. Statistical significance of the drug effects was assessed using a one-way ANOVA followed by Dunnett’s test, comparing each treatment to the drug-free control. Statistical significance of the differences in chemical characteristics between the hit compounds and the Prestwick library was assessed using a Mann–Whitney test. Statistical significance was set at P ≤ 0.05. A five-parameter logistic equation was used for asymmetric sigmoidal curve fitting and for EC50 and IC50 determination. The Venn diagram in Fig. 1F was prepared using BioVenn web application. Characteristics of the chemical and physical properties of Prestwick library compounds were obtained from Supplementary Table S1 from reference. Characteristics of the hit compounds not included in the Prestwick library were retrieved from the PubChem database.

[6] = E. coli, LPM pH 5.5, read-out: MIC
[7] = E. coli, pH 7.4, CA-MHB, read-out: MIC (μM) CA-MHB
[8] = DSM2569, S. aureus, CA-MHB pH 7.4, read-out: MIC (μM) CA-MHB
[9] = TC7 cells infected with GFP-expressing S. flexneri, 14 h treatment
[10] = DSM1117, P. aeruginosa, regrowth delay of non-growing bacteria, 1:4 CA-MHB pH 7.4, 24 h treatment, OD600 8 h after dilution, read-out: EC50

Row | Structure (SMILES) | MIC [1, 6] [µM] | MIC [1, 7] [µM] | MIC [2, 8] [µM] | IC50 [3] [nM] | Fluorescence intensity (RFU), Mean, 0.5 x MIC [3, 9] [RFU] | Fluorescence intensity (RFU), Mean, 2 x MIC [3, 9] [RFU] | Fluorescence intensity (RFU), Mean, 4 x MIC [3, 9] [RFU] | Fluorescence intensity (RFU), Mean, 8 x MIC [3, 9] [RFU] | Fluorescence intensity (RFU), Mean, 16 x MIC [3, 9] [RFU] | Fluorescence intensity (RFU), Mean, 32 x MIC [3, 9] [RFU] | Fluorescence intensity (RFU), Mean, MIC [3, 9] [RFU] | MIC [4] [µM] | EC50 [5, 10] [nM] | Fluorescence intensity (RFU), Mean, 0.25 x MIC [3, 9] [RFU] | other results
1 | O=C(O)c1cn(C2CC2)c2cc(N3CCNCC3)c(F)cc2c1=O [Ciprofloxacin] | 0.25 (≈ 0.0828 µg/mL) | 0.125 (≈ 0.0414 µg/mL) | 2 (≈ 0.663 µg/mL) | 54 | 6160.67 | 3512.33 | 3078.86 | 2399.75 | 1781.06 | 1734.42 | 4637.36 | 0.0625 (≈ 0.0207 µg/mL) | 125 | – | –
2 | NC1CCN(c2c(F)cc3c(=O)c(C(=O)O)cn(C4CC4)c3c2Cl)C1 (stereo not shown) [Clinafloxacin] | – | 0.0125 (≈ 0.00457 µg/mL) | 0.125 (≈ 0.0457 µg/mL) | 10 | 5544.33 | 3160.53 | 3034.56 | 2732.08 | 2021.17 | 1621.75 | 4423.92 | 0.0156 (≈ 0.00572 µg/mL) | 41 | 7691.46 | MIC ([1]; see Dataset 1, read-out: MIC (lowest measured MIC for all hit compounds)): 0.0125 µM (≈ 0.00457 µg/mL)
3 | CN1C[C@@H]2C[C@H]1CN2c1cc2c(cc1F)c(=O)c(C(=O)O)cn2C1CC1 [Danofloxacin] | – | 0.125 (≈ 0.0447 µg/mL) | 0.5 (≈ 0.179 µg/mL) | 52 | 8906.42 | 3750.58 | 3092.69 | 2319.78 | 1798.5 | 1629.06 | 4339.36 | 0.0625 (≈ 0.0223 µg/mL) | 604 | 9638.21 | –
4 | CN1CCN(c2cc3c(cc2F)c(=O)c(C(=O)O)cn3-c2ccc(F)cc2)CC1 [Difloxacin] | 0.0625 (≈ 0.025 µg/mL) | 0.25 (≈ 0.0998 µg/mL) | 1 (≈ 0.399 µg/mL) | 183 | 8126.42 | 3233.81 | 2824.97 | 2319.67 | 1827.36 | 1634.92 | 3866.17 | 0.25 (≈ 0.0998 µg/mL) | 2360 | 8915.25 | –
5 | CCN1CCN(c2cc3c(cc2F)c(=O)c(C(=O)O)cn3C2CC2)CC1 [Enrofloxacin] | 0.125 (≈ 0.0449 µg/mL) | 0.1 (≈ 0.0359 µg/mL) | 0.5 (≈ 0.18 µg/mL) | 36 | 6043.88 | 2710.72 | 1953.94 | 1617.72 | 1488.39 | 1501.89 | 3054.19 | 0.0625 (≈ 0.0225 µg/mL) | 690 | 7346.62 | Fluorescence intensity (RFU), Mean, 0.125 x MIC ([3]; TC7 cells infected with GFP-expressing S. flexneri, 14 h treatment, 0.125 x MIC): 8510.46 RFU
6 | C[C@H]1NCc2cc(-c3ccc4c(=O)c(C(=O)O)cn(C5CC5)c4c3OC(F)F)ccc21 [Garenoxacin] | 0.125 (≈ 0.0533 µg/mL) | 0.125 (≈ 0.0533 µg/mL) | 0.125 (≈ 0.0533 µg/mL) | 31 | 5273 | 3944.5 | 3336.42 | 2806.31 | 2331.56 | 1840.28 | 3888.86 | 0.0625 (≈ 0.0267 µg/mL) | 978 | 6643.04 | –
7 | COc1c(N2CCNC(C)C2)c(F)cc2c(=O)c(C(=O)O)cn(C3CC3)c12 (stereo not shown) [Gatifloxacin] | – | 0.125 (≈ 0.0469 µg/mL) | 0.5 (≈ 0.188 µg/mL) | 34 | 7621.42 | 3709.33 | 3006.58 | 2924.83 | 2191.44 | 1768.58 | 5214.92 | 0.0312 (≈ 0.0117 µg/mL) | 182 | – | –
8 | CO/N=C1\CN(c2nc3c(cc2F)c(=O)c(C(=O)O)cn3C2CC2)CC1CN (stereo not shown) [Gemifloxacin] | 0.25 (≈ 0.0973 µg/mL) | 0.025 (≈ 0.00973 µg/mL) | 0.125 (≈ 0.0487 µg/mL) | 22 | – | 4953.61 | 3661.36 | 3159.39 | 3090.56 | 2706.11 | 6688.44 | 0.0156 (≈ 0.00608 µg/mL) | 165 | – | Regrowth, OD600 at 6h or 8h after dilution into drug-free medium ([5]; P. aeruginosa, concentration 0.1): 0.486; Regrowth, OD600 at 6h or 8h after dilution into drug-free medium ([5]; P. aeruginosa, concentration 0.5): 0.138; Regrowth, OD600 at 6h or 8h after dilution into drug-free medium ([5]; P. aeruginosa, concentration 2.5): 0.091; Regrowth, OD600 at 6h or 8h after dilution into drug-free medium ([5]; P. aeruginosa, concentration 10): 0.090
9 | CO[C@@]12[C@H](COC(N)=O)C3=C(C(=O)C(C)=C(N)C3=O)N1C[C@@H]1N[C@@H]12 [Mitomycin C] | – | – | – | 451 | – | 2991.58 | 2579.31 | 2274.5 | 1986.92 | 1617.58 | 3708.94 | 1 (≈ 0.334 µg/mL) | – | – | MIC ([1]; pH 5.5): 0.5 µM (≈ 0.167 µg/mL); MIC ([1]; pH 7.4, read-out: MIC (μM) CA-MHB): 2 µM (≈ 0.669 µg/mL); MIC ([2]; DSM2569, pH 7.4, read-out: MIC (μM) CA-MHB): 0.25 µM (≈ 0.0836 µg/mL); Regrowth, OD600 at 6h or 8h after dilution into drug-free medium (average) ([5]; P. aeruginosa, drug concentration 0.1): 0.203; Regrowth, OD600 at 6h or 8h after dilution into drug-free medium (average) ([5]; P. aeruginosa, drug concentration 0.5): 0.116; Regrowth, OD600 at 6h or 8h after dilution into drug-free medium (average) ([5]; P. aeruginosa, drug concentration 2.5): 0.094; Regrowth, OD600 at 6h or 8h after dilution into drug-free medium (average) ([5]; P. aeruginosa, drug concentration 10): 0.095; EC50 ([5]; DSM1117, pH 7.4): 28 nM
